Reference: patent US20140303164A1, “THERAPEUTIC COMPOUNDS” (Gilead Sciences, Inc., priority 2013, published 2014)

Assays:
[1] = system: HIV-IIIb; assay: Test A: Antiviral Assay in MT4 Cells; type: cell-based, HIV-1; conditions: from dose response curve, MT-4 cells, HIV-IIIb, 5 days, values above 100 normalized to 100; for % inhibition at 0.2 μM: percent inhibition of virus-induced cell killing at 0.2 μM drug concentration; for % inhibition at 2 μM: percent inhibition of virus-induced cell killing at 2 μM drug concentration
Procedure: Test A: Antiviral Assay in MT4 Cells
MT-4 cells were next mixed with HIV-IIIb at an m.o.i of 0.003 for 1 hour, after which time 35 μL of virus/cell mixture (2000 cells) was immediately added to each well containing 40 μL of diluted compound. The plates were then incubated at 37° C. for 5 days. […] Cell lysis was carried out by incubating at room temperature for 10 min and then chemiluminescence was read.

[2] = system: uninfected MT-4 cells; assay: Test B: Cytotoxicity Assay; type: cell-based; conditions: same protocol as Test A, 5 days
In short: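 Uninfected MT-4 cells (2000 per well) incubated with diluted compound at 37° C. for 5 days, following the antiviral protocol without HIV-IIIb.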

SMILES	% inhibition at 0.2 μM [1] [%]	% inhibition at 2 μM [1] [%]	CC50 [2] [µM]
Cn1nc(NS(C)(=O)=O)c2cccc(-c3ccc(C#C[C@@H](N)CO)nc3[C@H](Cc3cc(F)cc(F)c3)NC(=O)Cn3nc(C(F)(F)F)c4c3C(F)(F)[C@@H]3C[C@H]43)c21 [Compound 59B, N—((S)-1-(6-((R)-3-amino-4-hydroxybut-1-yn-1-yl)-3-(1-methyl-3-(methylsulfonamido)-1H-indazol-7-yl)pyridin-2-yl)-2-(3,5-difluorophenyl)ethyl)-2-((3b-S,4aR)-5,5-difluoro-3-(trifluoromethyl)-3b,4,4a,5-tetrahydro-1H-cyclopropa[3,4]cyclopenta[1,2-c]pyrazol-1-yl)acetamide]	94	94	22.4
CC(C)(O)C#Cc1ccc(-c2cccc3c(N)n[nH]c23)c([C@H](Cc2cc(F)cc(F)c2)NC(=O)Cn2nc(C(F)(F)F)c3c2C(F)(F)[C@@H]2C[C@H]32)n1 [Compound 29B, N—((S)-1-(3-(3-amino-1H-indazol-7-yl)-6-(3-hydroxy-3-methylbut-1-yn-1-yl)pyridin-2-yl)-2-(3,5-difluorophenyl)ethyl)-2-((3b-S,4aR)-5,5-difluoro-3-(trifluoromethyl)-3b,4,4a,5-tetrahydro-1H-cyclopropa[3,4]cyclopenta[1,2-c]pyrazol-1-yl)acetamide]	80	81	15.3
COc1cc(-c2ccc(Cl)c3c(NS(C)(=O)=O)nn(C)c23)c([C@H](Cc2cc(F)cc(F)c2)NC(=O)Cn2nc(C(F)(F)F)c3c2C(F)(F)[C@@H]2C[C@H]32)nc1C#CC(C)(C)O [Compound 135B, N—((S)-1-(3-(4-chloro-1-methyl-3-(methylsulfonamido)-1H-indazol-7-yl)-6-(3-hydroxy-3-methylbut-1-yn-1-yl)-5-methoxypyridin-2-yl)-2-(3,5-difluorophenyl)ethyl)-2-((3b-S,4aR)-5,5-difluoro-3-(trifluoromethyl)-3b,4,4a,5-tetrahydro-1H-cyclopropa[3,4]cyclopenta[1,2-c]pyrazol-1-yl)acetamide]	93	93	14.2
